Laboratory results taken from patent US7736646B2, “Methods for modulating angiogenesis with apelin compositions” (Arizona Board of Regents on behalf of the University of …, priority 2003, dated 2010).

Tests used:
[1] = test system: primary rat cardiomyocyte cells; experiment: Cobalt chloride hypoxia-mimic treatment, transcript levels by PCR; assay type: cell-based; settings: 150 μM, 4 hours, versus untreated cells
Method: Because HIF-1α consensus sites are present in the apelin regulatory region, experiments were conducted to determine whether apelin expression is hypoxia responsive and regulated by HIF-1α. Upregulation of apelin expression under hypoxic conditions would be consistent with a role for apelin in promotion of tumor angiogenesis. Preliminary experiments were carried out using primary rat cardiomyocyte cells in culture and treatment with cobalt chloride. This procedure is accepted as an equivalent to culturing cells under hypoxic conditions because HIF-1α is a metal responsive transcription protein (Ladoux and Frelin, 1994; Piret et al., 2002; Maxwell and Salnikow, 2004). Fetal rat cardiac myocytes were plated and cultured in DMEM (Invitrogen, Carlsbad, Calif.) supplemented with 10% fetal calf serum and penicillin/streptomyocin at 37° C. After four days of culture, medium was removed, and cells were treated with fresh media containing 150 μM Cobalt Chloride (Piret et al., 2002). […] After 4 hours of culture, cells were harvested, and total RNA was extracted using the Trizol procedure according to the manufacturers recommendations (Invitrogen, Carlsbad, Calif.).
Following PCR, amplification products were fractionated on an agarose gel and visualized using ethidium bromide staining under ultraviolet light (FIG. 12).

[2] = test system: BAE/APJ#2 cells; experiment: Endothelial cell proliferation assay (BrdU incorporation); assay type: cell-based, bovine
Method: SU1498 was included in proliferation cultures at a concentration of 10 ng/ml and results were assayed using BrdU incorporation. After growth factor incubation, BrdU was added to each well at a final concentration of 10 μM for 2 hours, cells were washed, and fixed for BrdU immunocytochemistry.
Cells were fixed in 100% ice cold methanol at 4° C. for 2 hours to overnight. Prior to staining, cells were air dried and rehydrated for 3 minutes with PBS buffer. DNA was denatured at 37° C. with 2 M HCl, and neutralized with 2 washes for 5 minutes in 0.1 M borate buffer (pH 8.5). […] FITC-labeled anti-BrdU antibody (5 μg/ml) in block was added for 1 hour at room temperature. Cells were counterstained with propidium iodide following several washes in PBS buffer. For each experiment, 4 random fields were photographed for determination of percentage BrdU labeling.

[3] = test system: BAE/APJ#2 cells; settings: 10 ng/ml in bottom chamber, 16 hours
Method: Bovine aortic endothelial cells (BAE) were cultured in DMEM supplemented with 10% fetal bovine serum (FBS) and penicillin/streptomycin. For generation of stable cell lines expressing APJ, the mouse APJ coding region was cloned into the pcDNA 3.1 vector downstream of the CMV promoter, in frame with a myc epitope at the C-terminal end of the protein, and upstream of the neomycin gene. […] Colonies were isolated and screened using RT-PCR for expression of mouse APJ and also by immunocytochemistry for expression of the myc epitope.
Cell migration assays were performed using Transwell cell culture migration chambers (Becton Dickinson) with 8 micron pore size. BAE/APJ#2 cells were plated in serum free conditions in 100 μl at a concentration of 1×10^5 ml in the upper chamber of the migration chamber. Following cell attachment to the membrane, 10 ng/ml of growth factor was added to the bottom chamber, in a total volume of 0.5 ml. Cells were stimulated with growth factor in DMEM for 16 hours, or DMEM alone, at which time the cells remaining in the upper chamber were removed using a cotton tip applicator. Following a brief wash with PBS the remaining cells were fixed in 3.7% formaldehyde at 4° C. for 1 hour. Cells attached to the membrane in the lower chamber were stained with DAPI, and 3 random fields were counted for each experimental condition.

[4] = test system: chicken chorioallantoic membrane (CAM); settings: 50 ng on filter disc, three days, compared to control PBS
Method: Chicken eggs were incubated at 37° C. in a humidified chamber. On day 10 of development, a small window was made in the outer shell of the egg, and the CAM was released from its attachment to the inner shell membrane. A larger window was then made in the egg to allow for addition of the filter paper containing growth factor. Filter discs (3MM Whatman) of 7-8 mm diameter were pretreated with 10 μl of 0.1% cortisone acetate (Sigma) solution to avoid inflammation of the CAM. The filter discs were air dried prior to application of growth factors. […] After air-drying, the filter discs were placed on the CAM, and eggs were returned to the incubator for three days. Filter discs and the attached CAM were then excised, washed with PBS, trimmed to the size of the disc, and photographed for quantitative analysis (FIGS. 7A and 7B). The number of vessel branch points was determined using a blind protocol. The results are shown as the mean of three independent experiments +/−s.e.m. (FIG. 7C).

[Cl][Co][Cl] [Cobalt Chloride]
apelin expression (transcript level, PCR) [1]: significantly increased

CC(C)c1cc(/C=C(\C#N)C(=O)NCCCc2ccccc2)cc(C(C)C)c1O [SU1498, reference compound]
effect on VEGF-mediated proliferation ([2]; SU1498 10 ng/ml, VEGF 10 ng/ml): partially inhibits
effect on apelin-mediated proliferation ([2]; SU1498 10 ng/ml, apelin 10 ng/ml): no significant effect

VEGF [reference compound]
endothelial cell migration (cells per field) [3]: increase in migration

apelin-13
blood vessel formation in the CAM [4]: increased
leakage of blood vessels in the CAM [4]: increased
endothelial cell proliferation (percentage BrdU labeling) ([2]; 10 ng/ml, 24 hours, serum starved cells): promotes endothelial cell proliferation to a similar extent as VEGF
endothelial cell proliferation in the presence of the VEGF inhibitor SU1498 ([2]; apelin 10 ng/ml with SU1498 10 ng/ml): still able to promote proliferation
endothelial cell migration (cells per field) [3]: promotes endothelial cell migration
